According to the supplement of paper PMC10307832:

Legend:
Assay in all cases: relative viability (nuclei count vs DMSO), 5 days (fraction); higher = more cells survive
HCC-827 = test system: HCC-827
Summary of the method: (§1)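 Relative viability was taken as the ratio of nuclei in treated wells to nuclei in vehicle wells. Lung cancer cell lines in 1536-well plates received compounds by pin tool one day after seeding, either one drug alone or a fixed anchor-drug dose plus five library-drug doses (not always all listed) in √10 steps. Nuclei were counted on 4× images after 5 days of treatment, and values are medians of duplicate plates.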

NCI-H322M = test system: NCI-H322M
Summary of the method: as §1

NCI-H1651 = test system: NCI-H1651
Summary of the method: as §1

SK-MES-1 = test system: SK-MES-1
Summary of the method: as §1

NCI-H1355 = test system: NCI-H1355
Summary of the method: as §1

HCC-15 = test system: HCC-15
Summary of the method: as §1

NCI-H2405 = test system: NCI-H2405
Summary of the method: as §1

CAL-12T = test system: CAL-12T
Summary of the method: as §1

EKVX = test system: EKVX
Summary of the method: as §1

NCI-H2228 = test system: NCI-H2228
Summary of the method: as §1

RERF-LC-KJ = test system: RERF-LC-KJ
Summary of the method: as §1

PC-14 = test system: PC-14
Summary of the method: as §1

COR-L23 = test system: COR-L23
Summary of the method: as §1

LK-2 = test system: LK-2
Summary of the method: as §1

ABC-1 = test system: ABC-1
Summary of the method: as §1

NCI-H1734 = test system: NCI-H1734
Summary of the method: as §1

NCI-H1437 = test system: NCI-H1437
Summary of the method: as §1

NCI-H520 = test system: NCI-H520
Summary of the method: as §1

PC-3 [JPC-3] = test system: PC-3 [JPC-3]
Summary of the method: as §1

NCI-H661 = test system: NCI-H661
Summary of the method: as §1

H3255 = test system: H3255
Summary of the method: as §1

SW 1573 = test system: SW 1573
Summary of the method: as §1

NCI-H1563 = test system: NCI-H1563
Summary of the method: as §1

Work on Clc1ccc(Nc2nnc(Cc3ccncc3)c3ccccc23)cc1 [Vatalanib] + C[C@]1(O)C[C@@H](c2nc(-c3ccc4ccc(-c5ccccc5)nc4c3)c3c(N)nccn32)C1 [Linsitinib] (partner 1 µM) yielded a relative viability (HCC-827; first compound 0.04 µM) of 0.992, a relative viability (HCC-827; first compound 0.1265 µM) of 0.925 and a relative viability (HCC-827; first compound 0.4 µM) of 0.95. For the same compound, the relative viability (HCC-827; first compound 1.265 µM) was 0.936, the relative viability (HCC-827; first compound 4 µM) was 0.905 and the relative viability (NCI-H322M; first compound 0.04 µM) was 0.939. For the same compound, the relative viability (NCI-H322M; first compound 0.1265 µM) was 0.83, the relative viability (NCI-H322M; first compound 0.4 µM) was 0.975 and the relative viability (NCI-H322M; first compound 1.265 µM) was 0.959. The relative viability (NCI-H322M; first compound 4 µM) was 0.919, the relative viability (NCI-H1651; first compound 0.04 µM) was 0.971 and the relative viability (NCI-H1651; first compound 0.1265 µM) was 0.927. For the same compound, the relative viability (NCI-H1651; first compound 0.4 µM) was 0.94, the relative viability (NCI-H1651; first compound 1.265 µM) was 0.948 and the relative viability (NCI-H1651; first compound 4 µM) was 1.13. The relative viability (SK-MES-1; first compound 0.04 µM) was 1.04, the relative viability (SK-MES-1; first compound 0.1265 µM) was 1.03 and the relative viability (SK-MES-1; first compound 0.4 µM) was 1.17. It also gave a relative viability (SK-MES-1; first compound 1.265 µM) of 1.02, a relative viability (SK-MES-1; first compound 4 µM) of 0.928 and a relative viability (NCI-H1355; first compound 0.04 µM) of 0.87. It also gave a relative viability (NCI-H1355; first compound 0.1265 µM) of 0.818, a relative viability (NCI-H1355; first compound 0.4 µM) of 0.915 and a relative viability (NCI-H1355; first compound 1.265 µM) of 0.772. It also gave a relative viability (NCI-H1355; first compound 4 µM) of 0.763, a relative viability (HCC-15; first compound 0.04 µM) of 0.937 and a relative viability (HCC-15; first compound 0.1265 µM) of 0.911. For the same compound, the relative viability (HCC-15; first compound 0.4 µM) was 0.902, the relative viability (HCC-15; first compound 1.265 µM) was 0.87 and the relative viability (HCC-15; first compound 4 µM) was 0.873. The relative viability (NCI-H2405; first compound 0.04 µM) was 0.951, the relative viability (NCI-H2405; first compound 0.1265 µM) was 0.901 and the relative viability (NCI-H2405; first compound 1.265 µM) was 0.868. The relative viability (NCI-H2405; first compound 4 µM) was 0.93, the relative viability (CAL-12T; first compound 0.04 µM) was 0.826 and the relative viability (CAL-12T; first compound 0.1265 µM) was 0.787. It also gave a relative viability (CAL-12T; first compound 0.4 µM) of 0.848, a relative viability (CAL-12T; first compound 1.265 µM) of 0.755 and a relative viability (CAL-12T; first compound 4 µM) of 0.822. The relative viability (EKVX; first compound 0.04 µM) was 1.03, the relative viability (EKVX; first compound 0.1265 µM) was 0.89 and the relative viability (EKVX; first compound 0.4 µM) was 0.941. The relative viability (EKVX; first compound 1.265 µM) was 0.814, the relative viability (EKVX; first compound 4 µM) was 0.776 and the relative viability (NCI-H2228; first compound 0.04 µM) was 0.825. It also gave a relative viability (NCI-H2228; first compound 0.1265 µM) of 0.508, a relative viability (NCI-H2228; first compound 0.4 µM) of 0.83 and a relative viability (NCI-H2228; first compound 1.265 µM) of 0.664. For the same compound, the relative viability (NCI-H2228; first compound 4 µM) was 0.761, the relative viability (RERF-LC-KJ; first compound 0.04 µM) was 0.932 and the relative viability (RERF-LC-KJ; first compound 0.1265 µM) was 0.875. For the same compound, the relative viability (RERF-LC-KJ; first compound 0.4 µM) was 0.933, the relative viability (RERF-LC-KJ; first compound 1.265 µM) was 0.762 and the relative viability (RERF-LC-KJ; first compound 4 µM) was 0.812. The relative viability (PC-14; first compound 0.04 µM) was 0.955, the relative viability (PC-14; first compound 0.1265 µM) was 0.905 and the relative viability (PC-14; first compound 0.4 µM) was 1.03. For the same compound, the relative viability (PC-14; first compound 1.265 µM) was 0.955, the relative viability (PC-14; first compound 4 µM) was 0.871 and the relative viability (COR-L23; first compound 0.04 µM) was 0.978. It also gave a relative viability (COR-L23; first compound 0.1265 µM) of 0.943, a relative viability (COR-L23; first compound 0.4 µM) of 1.08 and a relative viability (COR-L23; first compound 1.265 µM) of 0.811. It also gave a relative viability (COR-L23; first compound 4 µM) of 0.922, a relative viability (LK-2; first compound 0.04 µM) of 0.712 and a relative viability (LK-2; first compound 0.1265 µM) of 0.423. The relative viability (LK-2; first compound 0.4 µM) was 0.541, the relative viability (LK-2; first compound 1.265 µM) was 0.435 and the relative viability (LK-2; first compound 4 µM) was 0.704. It also gave a relative viability (ABC-1; first compound 0.04 µM) of 0.89, a relative viability (ABC-1; first compound 0.1265 µM) of 0.767 and a relative viability (ABC-1; first compound 0.4 µM) of 1.05. For the same compound, the relative viability (ABC-1; first compound 1.265 µM) was 0.659, the relative viability (ABC-1; first compound 4 µM) was 0.981 and the relative viability (NCI-H1734; first compound 0.04 µM) was 0.971. The relative viability (NCI-H1734; first compound 0.1265 µM) was 0.866, the relative viability (NCI-H1734; first compound 0.4 µM) was 1.03 and the relative viability (NCI-H1734; first compound 1.265 µM) was 0.886. The relative viability (NCI-H1734; first compound 4 µM) was 0.859, the relative viability (NCI-H1437; first compound 0.04 µM) was 1.09 and the relative viability (NCI-H1437; first compound 0.1265 µM) was 1.03. For the same compound, the relative viability (NCI-H1437; first compound 0.4 µM) was 1.14, the relative viability (NCI-H1437; first compound 1.265 µM) was 0.956 and the relative viability (NCI-H1437; first compound 4 µM) was 1.08. The relative viability (NCI-H520; first compound 0.04 µM) was 0.901, the relative viability (NCI-H520; first compound 0.1265 µM) was 0.888 and the relative viability (NCI-H520; first compound 0.4 µM) was 0.802. The relative viability (NCI-H520; first compound 1.265 µM) was 0.86, the relative viability (NCI-H520; first compound 4 µM) was 0.989 and the relative viability (PC-3 [JPC-3]; first compound 0.04 µM) was 0.986. The relative viability (PC-3 [JPC-3]; first compound 0.1265 µM) was 1.01, the relative viability (PC-3 [JPC-3]; first compound 0.4 µM) was 0.957 and the relative viability (PC-3 [JPC-3]; first compound 1.265 µM) was 0.824. For the same compound, the relative viability (PC-3 [JPC-3]; first compound 4 µM) was 0.932, the relative viability (NCI-H661; first compound 0.04 µM) was 0.59 and the relative viability (NCI-H661; first compound 0.1265 µM) was 0.477. For the same compound, the relative viability (NCI-H661; first compound 0.4 µM) was 0.616, the relative viability (NCI-H661; first compound 1.265 µM) was 0.581 and the relative viability (NCI-H661; first compound 4 µM) was 0.581. It also gave a relative viability (H3255; first compound 0.04 µM) of 0.984, a relative viability (H3255; first compound 0.1265 µM) of 0.902 and a relative viability (H3255; first compound 0.4 µM) of 0.702. The relative viability (H3255; first compound 1.265 µM) was 0.932, the relative viability (H3255; first compound 4 µM) was 0.921 and the relative viability (SW 1573; first compound 0.04 µM) was 1. For the same compound, the relative viability (SW 1573; first compound 0.1265 µM) was 0.791, the relative viability (SW 1573; first compound 0.4 µM) was 0.781 and the relative viability (SW 1573; first compound 1.265 µM) was 0.802. For the same compound, the relative viability (SW 1573; first compound 4 µM) was 0.723, the relative viability (NCI-H1563; first compound 0.04 µM) was 1.42 and the relative viability (NCI-H1563; first compound 0.1265 µM) was 1.27. The relative viability (NCI-H1563; first compound 0.4 µM) was 1.24, the relative viability (NCI-H1563; first compound 1.265 µM) was 1.12 and the relative viability (NCI-H1563; first compound 4 µM) was 1.2.
